Assay results: paper PMC3622084 (Biochemistry, 2013)
pEC50, pIC50: −log10 of the molar value.

How the values were obtained:
Test in all cases: Clark electrode O2 uptake, cytochrome c / ascorbate / TMPD
Type in all cases: biochemical
[1] = molecular target: T1, Rhodobacter sphaeroides cytochrome c oxidase (RsCcO) (Cereibacter sphaeroides, UniProt P33517+Q03736, Q03736:E101A)
[2] = molecular target: Rhodobacter sphaeroides cytochrome c oxidase (RsCcO) (Cereibacter sphaeroides, UniProt P33517+Q03736); conditions: read-out: K1/2; inhibition; 0.01% DDM, pH 7.4, 30 μM bovine cytochrome c
[3] = molecular target: T1, Rhodobacter sphaeroides cytochrome c oxidase (RsCcO); remark: listed apart in the source

T1 sequence (P33517 whole entry): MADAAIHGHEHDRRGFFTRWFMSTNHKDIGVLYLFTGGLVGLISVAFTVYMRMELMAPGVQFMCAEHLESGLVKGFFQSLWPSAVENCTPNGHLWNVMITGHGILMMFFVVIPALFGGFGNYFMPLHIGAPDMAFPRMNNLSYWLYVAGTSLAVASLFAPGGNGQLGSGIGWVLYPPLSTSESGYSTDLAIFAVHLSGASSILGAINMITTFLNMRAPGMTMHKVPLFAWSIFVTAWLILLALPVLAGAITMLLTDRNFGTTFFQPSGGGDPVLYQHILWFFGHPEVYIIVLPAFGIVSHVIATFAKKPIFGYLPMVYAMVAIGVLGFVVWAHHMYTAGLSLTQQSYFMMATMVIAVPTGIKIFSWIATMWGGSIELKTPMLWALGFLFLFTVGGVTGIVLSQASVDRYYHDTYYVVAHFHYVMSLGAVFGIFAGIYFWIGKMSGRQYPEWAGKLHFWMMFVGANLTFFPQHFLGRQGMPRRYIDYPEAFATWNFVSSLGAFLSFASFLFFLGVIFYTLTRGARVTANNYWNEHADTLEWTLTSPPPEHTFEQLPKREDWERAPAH
T1 sequence (Q03736 26-303 E101A limits assumed): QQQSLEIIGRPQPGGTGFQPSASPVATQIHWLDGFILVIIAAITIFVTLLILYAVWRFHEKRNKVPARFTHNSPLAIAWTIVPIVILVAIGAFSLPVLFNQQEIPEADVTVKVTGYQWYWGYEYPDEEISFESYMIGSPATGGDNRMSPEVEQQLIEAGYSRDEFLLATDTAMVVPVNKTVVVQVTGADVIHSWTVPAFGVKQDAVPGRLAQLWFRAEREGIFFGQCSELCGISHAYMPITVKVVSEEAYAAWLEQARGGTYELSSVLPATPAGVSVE
Chain of Rhodobacter sphaeroides cytochrome c oxidase (RsCcO) (Cereibacter sphaeroides, UniProt P33517+Q03736) (P33517 whole entry): as the sequence (P33517 whole entry) above
Chain of Rhodobacter sphaeroides cytochrome c oxidase (RsCcO) (Cereibacter sphaeroides, UniProt P33517+Q03736) (Q03736 26-303 limits assumed): as the sequence (Q03736 26-303 E101A limits assumed) above, with A76E counted along it

Row | Compound | pEC50 [1] | further results
1 | CC(C)CCC[C@@H](C)[C@H]1CC[C@H]2[C@@H]3CC=C4C[C@@H](OC(=O)CCC(=O)O)CC[C@]4(C)[C@H]3CC[C@]12C [cholesteryl hemisuccinate] | ~4.10 | 
2 | C=CC1=C(C)/C(=C/c2[nH]c(Cc3[nH]c(/C=C4\NC(=O)C(C)=C4C=C)c(C)c3CCC(=O)O)c(CCC(=O)O)c2C)NC1=O [bilirubin] | ~4.30 | 
3 | CC(C)CCCC(C)CCCC(C)CCCC(C)CC(=O)O (centres unmarked) [phytanic acid] | ~5.40 | 
4 | C=CC1=C(C)c2cc3[nH]c(cc4nc(cc5[nH]c(cc1n2)c(C)c5CCC(=O)O)C(CCC(=O)O)=C4C)c(C)c3C=C [protoporphyrin IX] | ~4.85 | 
5 | CC1=C(/C=C/C(C)=C/C=C/C(C)=C/C(=O)O)C(C)(C)CCC1 [retinoic acid] | ~5.10 | 
6 | CHOBIMALT |  | pIC50 [2]: ~3.70
7 | C[C@H](CCC(=O)O)[C@H]1CC[C@H]2[C@@H]3[C@H](O)C[C@@H]4C[C@H](O)CC[C@]4(C)[C@H]3C[C@H](O)[C@]12C [cholate] | 3.70 | 
8 | CCCCCCCC/C=C\CCCCCCCC(=O)OC[C@@H](O)COP(=O)([O-])OCC[N+](C)(C)C [lyso-oleoyl phosphatidylcholine] |  | pIC50 [3]: ~4.77
